Source: patent US8969516B2, “Method of hydrolysis of peptide bond” (priority 2006, dated 2015)

Test: MALDI-TOF screening of Ni^2+ dependent hydrolysis in a combinatorial peptide library
Assay type: physicochemical
Settings: CH3CO-Gly-Ala-Ser-X-His-Z-Lys-Phe-Leu-NH2 library, Ni^2+ 2 mM, pH 8.2, 10 mM Tris, score=24/tm
Source text: The sequence CH3CO-Gly-Ala-Ser/Thr-X-His-Z-Lys-Phe-Leu-NH2 was designed so that the fixed R1 and R2 sequences, CH3CO-Gly-Ala, and Lys-Phe-Leu-NH2, respectively, allowed optimal detection by MALDI-TOF mass spectrometry of substrates as well as expected products, Ser/Thr-X-His-Z-Lys-Phe-Leu-NH2 and assured separation between the clusters of signals for substrates and products in sublibraries (see below).
Residues in position X included all amino acids commonly present in proteins, except for Asp, Glu, and Cys. The former two contain carboxylates in their side chains, which may bind Ni^2+ in a way which would quench or slow down the hydrolysis reaction. The Cys residue may do the same, and also may engage in side reactions with Ni^2+ ions, including redox processes (for example see Bal and Kasprzak, Toxicol. Lett. 2002, 127, 55-62). Only the Cys residue was eliminated from position Z, for the same reasons.
The synthesis of the library was accomplished on a RINK amide resin (Novabiochem) on a 800 mg scale, according to a typical Fmoc protocol (Fields, Meth. Enzymol. Vol. 289). The resin-attached Leu-Phe-Lys peptide was synthesised first and coupled with the isokinetic mixture of 19 amino acids selected for position Z, and then with the H is residue. The resin carrying the library of pentapeptides was divided into Ser and Thr halves at this stage, and each of these halves into 17 portions, which were coupled with individual amino acids selected for position X. The coupling with Ser or Thr as appropriate, additions of Ala and Gly residues, acetylation of Gly, deprotection and cleavage from the resin were accomplished subsequently. Each of the resulting 34 samples of sublibraries randomized at position X was separated into two portions, one for the reaction at 37° C. and another for the reaction at 45° C. The hydrolysis reactions were accomplished in 10 mM Tris buffers at pH 8.2. The total concentrations of peptide mixtures and Ni^2+ ions were 1 mM and 2 mM, respectively. The pH for the reaction was chosen as selective for highly reactive sequences.
The detection of reaction products was accomplished with the use of a MALDI-TOF mass spectrometer (Micromass). The aliquots were removed from reaction mixtures and measured by MS at 2, 4, 6, and 8 hours of incubation. The progress of reaction was evaluated by visual detection in mass spectra of appearance of signals corresponding to expected products of hydrolysis, Ser/Thr-X-His-Z-Lys-Phe-Leu-NH2, at given measurement times, tm. […] Also the decrease of signals of substrates was controlled in these cases.
Residues X and Z were then sorted according to various molecular parameters, describing their physical properties (Carugo, In Silico Biol. 2003, 3, 0035). […] The Ser library provided a higher number of reactive peptides than the Thr library. Following the additivity of effects, the scores were also summed up in lines and columns of Table 1A-D, thereby creating final rankings for preferred substitutions in positions X and Z.

Row | Substance | hydrolysis score from MALDI-TOF screening (37° C.) | hydrolysis score from MALDI-TOF screening (45° C.)
1 | Ac-GASGHWKFL-NH2 [SGHW] | 3 (a score of 3 for detection at 8 hours) | 4 (a score of 4 for detection at 6 hours)
2 | Ac-GASGHYKFL-NH2 [SGHY] | 0 (a score of 0 if no trace of the product of hydrolysis was seen after 8 hours of incubation) | 0 (a score of 0 if no trace of the product of hydrolysis was seen after 8 hours of incubation)
3 | Ac-GASHHDKFL-NH2 [SHHD] | 0 (a score of 0 if no trace of the product of hydrolysis was seen after 8 hours of incubation) | 0 (a score of 0 if no trace of the product of hydrolysis was seen after 8 hours of incubation)
4 | Ac-GASHHEKFL-NH2 [SHHE] | 0 (a score of 0 if no trace of the product of hydrolysis was seen after 8 hours of incubation) | 0 (a score of 0 if no trace of the product of hydrolysis was seen after 8 hours of incubation)
5 | Ac-GASHHFKFL-NH2 [SHHF] | 3 (a score of 3 for detection at 8 hours) | 3 (a score of 3 for detection at 8 hours)
6 | Ac-GASHHGKFL-NH2 [SHHG] | 3 (a score of 3 for detection at 8 hours) | 0 (a score of 0 if no trace of the product of hydrolysis was seen after 8 hours of incubation)
7 | Ac-GASHHHKFL-NH2 [SHHH] | 0 (a score of 0 if no trace of the product of hydrolysis was seen after 8 hours of incubation) | 0 (a score of 0 if no trace of the product of hydrolysis was seen after 8 hours of incubation)
8 | Ac-GASHHIKFL-NH2 [SHHI] | 6 (a score of 6 for detection at 4 hours) | 6 (a score of 6 for detection at 4 hours)
9 | Ac-GASHHKKFL-NH2 [SHHK] | 6 (a score of 6 for detection at 4 hours) | 12 (a score of 12, if it was seen to be partially hydrolysed at 2 hours)
10 | Ac-GASHHLKFL-NH2 [SHHL] | 6 (a score of 6 for detection at 4 hours) | 6 (a score of 6 for detection at 4 hours)
11 | Ac-GASHHMKFL-NH2 [SHHM] | 0 (a score of 0 if no trace of the product of hydrolysis was seen after 8 hours of incubation) | 0 (a score of 0 if no trace of the product of hydrolysis was seen after 8 hours of incubation)
12 | Ac-GASHHNKFL-NH2 [SHHN] | 0 (a score of 0 if no trace of the product of hydrolysis was seen after 8 hours of incubation) | 0 (a score of 0 if no trace of the product of hydrolysis was seen after 8 hours of incubation)
13 | Ac-GASHHPKFL-NH2 [SHHP] | 0 (a score of 0 if no trace of the product of hydrolysis was seen after 8 hours of incubation) | 0 (a score of 0 if no trace of the product of hydrolysis was seen after 8 hours of incubation)
14 | Ac-GASHHQKFL-NH2 [SHHQ] | 0 (a score of 0 if no trace of the product of hydrolysis was seen after 8 hours of incubation) | 0 (a score of 0 if no trace of the product of hydrolysis was seen after 8 hours of incubation)
15 | Ac-GASHHRKFL-NH2 [SHHR] | 4 (a score of 4 for detection at 6 hours) | 6 (a score of 6 for detection at 4 hours)
16 | Ac-GASHHSKFL-NH2 [SHHS] | 0 (a score of 0 if no trace of the product of hydrolysis was seen after 8 hours of incubation) | 0 (a score of 0 if no trace of the product of hydrolysis was seen after 8 hours of incubation)
17 | Ac-GASHHTKFL-NH2 [SHHT] | 0 (a score of 0 if no trace of the product of hydrolysis was seen after 8 hours of incubation) | 0 (a score of 0 if no trace of the product of hydrolysis was seen after 8 hours of incubation)

Row | Substance | hydrolysis score from MALDI-TOF screening (37° C.) | hydrolysis score from MALDI-TOF screening (45° C.)
18 | Ac-GASHHVKFL-NH2 [SHHV] | 6 (a score of 6 for detection at 4 hours) | 6 (a score of 6 for detection at 4 hours)
19 | Ac-GASHHWKFL-NH2 [SHHW] | 6 (a score of 6 for detection at 4 hours) | 12 (a score of 12, if it was seen to be partially hydrolysed at 2 hours)
20 | Ac-GASHHYKFL-NH2 [SHHY] | 3 (a score of 3 for detection at 8 hours) | 4 (a score of 4 for detection at 6 hours)
21 | Ac-GASIHAKFL-NH2 [SIHA] | 0 (a score of 0 if no trace of the product of hydrolysis was seen after 8 hours of incubation) | 0 (a score of 0 if no trace of the product of hydrolysis was seen after 8 hours of incubation)
22 | Ac-GASIHDKFL-NH2 [SIHD] | 0 (a score of 0 if no trace of the product of hydrolysis was seen after 8 hours of incubation) | 0 (a score of 0 if no trace of the product of hydrolysis was seen after 8 hours of incubation)
23 | Ac-GASIHEKFL-NH2 [SIHE] | 0 (a score of 0 if no trace of the product of hydrolysis was seen after 8 hours of incubation) | 0 (a score of 0 if no trace of the product of hydrolysis was seen after 8 hours of incubation)
24 | Ac-GASIHFKFL-NH2 [SIHF] | 0 (a score of 0 if no trace of the product of hydrolysis was seen after 8 hours of incubation) | 0 (a score of 0 if no trace of the product of hydrolysis was seen after 8 hours of incubation)
25 | Ac-GASIHGKFL-NH2 [SIHG] | 0 (a score of 0 if no trace of the product of hydrolysis was seen after 8 hours of incubation) | 0 (a score of 0 if no trace of the product of hydrolysis was seen after 8 hours of incubation)
26 | Ac-GASIHHKFL-NH2 [SIHH] | 3 (a score of 3 for detection at 8 hours) | 3 (a score of 3 for detection at 8 hours)
27 | Ac-GASIHIKFL-NH2 [SIHI] | 3 (a score of 3 for detection at 8 hours) | 3 (a score of 3 for detection at 8 hours)
28 | Ac-GASIHKKFL-NH2 [SIHK] | 3 (a score of 3 for detection at 8 hours) | 4 (a score of 4 for detection at 6 hours)
29 | Ac-GASIHMKFL-NH2 [SIHM] | 0 (a score of 0 if no trace of the product of hydrolysis was seen after 8 hours of incubation) | 0 (a score of 0 if no trace of the product of hydrolysis was seen after 8 hours of incubation)
30 | Ac-GASIHNKFL-NH2 [SIHN] | 0 (a score of 0 if no trace of the product of hydrolysis was seen after 8 hours of incubation) | 0 (a score of 0 if no trace of the product of hydrolysis was seen after 8 hours of incubation)
31 | Ac-GASIHPKFL-NH2 [SIHP] | 0 (a score of 0 if no trace of the product of hydrolysis was seen after 8 hours of incubation) | 0 (a score of 0 if no trace of the product of hydrolysis was seen after 8 hours of incubation)
32 | Ac-GASIHQKFL-NH2 [SIHQ] | 0 (a score of 0 if no trace of the product of hydrolysis was seen after 8 hours of incubation) | 0 (a score of 0 if no trace of the product of hydrolysis was seen after 8 hours of incubation)
33 | Ac-GASIHRKFL-NH2 [SIHR] | 3 (a score of 3 for detection at 8 hours) | 3 (a score of 3 for detection at 8 hours)
34 | Ac-GASIHSKFL-NH2 [SIHS] | 0 (a score of 0 if no trace of the product of hydrolysis was seen after 8 hours of incubation) | 0 (a score of 0 if no trace of the product of hydrolysis was seen after 8 hours of incubation)
